SMILES strings stand for the structures.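 Where inhibition never reached the appropriate level, the endpoint shown equals the highest concentration tested. Otherwise, values were interpolated linearly from a five-concentration, 48-hour dose response in 96-well plates. The concentration for 50% growth inhibition is given as GI50. TGI is the concentration that stops growth completely.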

Among the test systems are 786-0 renal; OVCAR-4 ovarian; SNB-19 CNS; HT29 colon; TK-10 renal; NCI-H23 lung; UACC-62 melanoma; MDA-MB-435; CCRF-CEM leukemia; SNB-75 CNS.
Assay in all cases: NCI anticancer screen, dose series, 48 h

For the compound `Cc1cccc(Nc2nn3c(=O)c4c5c(sc4nc3s2)CCCC5)c1`, the TGI was > 100 µM in the assay on 786-0 renal; > 100 µM in the assay on OVCAR-4 ovarian; > 100 µM in the assay on SNB-19 CNS; > 100 µM in the assay on HT29 colon; > 100 µM with TK-10 renal; 57.1 µM with NCI-H23 lung. Moreover, the TGI with UACC-62 melanoma is 5.92 µM; in the assay on MDA-MB-435 it was > 100 µM; with CCRF-CEM leukemia it was > 100 µM; in the assay on SNB-75 CNS, 78.4 µM.
`CC1C(=O)N(c2ccccc2)NC12CCCc1ccccc12` (stereo not drawn): the TGI in the assay with OVCAR-4 ovarian, in the assay on SNB-19 CNS, in the assay on HT29 colon, in the assay with TK-10 renal, in the assay on NCI-H23 lung and in the assay with UACC-62 melanoma was > 100 µM throughout. Also, the TGI in the assay on MDA-MB-435, with CCRF-CEM leukemia and in the assay on SNB-75 CNS was > 100 µM each time.
As for `OCC(O)C(O)C(O)C(O)c1nc2ccc(Cl)cc2[nH]1` (stereo not drawn), the TGI with 786-0 renal, with OVCAR-4 ovarian, in the assay with SNB-19 CNS, with HT29 colon, in the assay on TK-10 renal and with NCI-H23 lung was > 100 µM each time. The TGI in the assay on UACC-62 melanoma, in the assay with MDA-MB-435, in the assay with CCRF-CEM leukemia and in the assay on SNB-75 CNS was > 100 µM in each case.
Take `Cc1cc(F)ccc1S(=O)(=O)Nc1cc(-c2c(O)ccc3ccccc23)c(O)c2ccccc12`: the GI50 in the assay on OVCAR-4 ovarian was 2.21 µM; with HT29 colon, 4.09 µM; in the assay with TK-10 renal, 5.87 µM; in the assay on NCI-H23 lung it was 2.77 µM; in the assay on UACC-62 melanoma, 1.85 µM; in the assay on MDA-MB-435, 3.18 µM. Besides, the results for the GI50 in the assay on CCRF-CEM leukemia and in the assay with SNB-75 CNS were 3.26 µM and 2.32 µM, respectively. The TGI with OVCAR-4 ovarian was 6.66 µM; with HT29 colon it was 21.1 µM; with TK-10 renal, 17.6 µM; with NCI-H23 lung, 13.3 µM; in the assay with UACC-62 melanoma, 4.54 µM; in the assay on MDA-MB-435 it was 10.9 µM. The TGI in the assay on CCRF-CEM leukemia came out at 16.6 µM; in the assay on SNB-75 CNS, 11.7 µM.
Turning to `CC(NC(=O)C(NC(=O)CNC(=O)OC(C)(C)C)C(C)C)C(=O)Oc1c(Cl)c(Cl)c(Cl)c(Cl)c1Cl` (stereo not drawn), the TGI in the assay on OVCAR-4 ovarian was 60.9 µM; with SNB-19 CNS, 96 µM; in the assay with HT29 colon it was 68.5 µM; in the assay on TK-10 renal, 77.2 µM; in the assay with NCI-H23 lung it was 29.5 µM; in the assay on UACC-62 melanoma, 34.8 µM. Further, the figures for the TGI in the assay with MDA-MB-435, in the assay on CCRF-CEM leukemia and with SNB-75 CNS were 61.3 µM, > 100 µM and 78.7 µM, respectively.
Consider `COc1ccc(CC(N)c2ccc(OC)cc2)cc1` (stereo not drawn), for which the TGI in the assay with 786-0 renal, in the assay with OVCAR-4 ovarian, in the assay on SNB-19 CNS, in the assay with HT29 colon, with TK-10 renal and in the assay with NCI-H23 lung was > 100 µM in each case. Besides, the TGI with UACC-62 melanoma, in the assay with MDA-MB-435, in the assay with CCRF-CEM leukemia and in the assay on SNB-75 CNS was > 100 µM throughout.
In the case of `O=C(NCCCCCCCCCCCCNC(=O)Nc1cccc2ccccc12)Nc1cccc2ccccc12`, the TGI in the assay with 786-0 renal came out at 32.2 µM; in the assay on OVCAR-4 ovarian, 24.1 µM; with SNB-19 CNS, 30.1 µM; with HT29 colon it was 40.8 µM; in the assay with TK-10 renal, 31.5 µM; in the assay with NCI-H23 lung, 31.5 µM. Also, the TGI came out at 26.7 µM with UACC-62 melanoma, 33.5 µM with MDA-MB-435, 33.4 µM with CCRF-CEM leukemia and 32.7 µM in the assay with SNB-75 CNS.
On to `CSCSSC`, for which the TGI with 786-0 renal, with OVCAR-4 ovarian, with SNB-19 CNS, with HT29 colon, in the assay with TK-10 renal and in the assay with NCI-H23 lung was > 100 µM throughout. For the same compound, the TGI with UACC-62 melanoma, in the assay with MDA-MB-435, in the assay on CCRF-CEM leukemia and with SNB-75 CNS was > 100 µM in each case.
Take `CCCCCCCC/C=C\CCCCCCC/C=C1\C[C@](/C=C/C(=O)OC)(CO)OC1=O`: the TGI in the assay on 786-0 renal came to 3.61 µM; with OVCAR-4 ovarian, 10.9 µM; with SNB-19 CNS it was 16 µM; with HT29 colon, 25.8 µM; with TK-10 renal it was 8 µM; in the assay with NCI-H23 lung, 16.1 µM. Also, the TGI in the assay with UACC-62 melanoma was 20.1 µM; in the assay with MDA-MB-435, 3.22 µM; in the assay on CCRF-CEM leukemia it was > 23 µM; in the assay with SNB-75 CNS, 4.59 µM.
On to `N#CC1(C#N)NC(c2cccs2)C(C#N)(C#N)NC1c1cccs1` (stereo not drawn), for which the TGI in the assay with 786-0 renal, in the assay on OVCAR-4 ovarian, with SNB-19 CNS, in the assay with HT29 colon, in the assay with TK-10 renal and in the assay on NCI-H23 lung was > 100 µM throughout. Further, the TGI with UACC-62 melanoma is 57.9 µM; in the assay with MDA-MB-435, > 100 µM; in the assay with CCRF-CEM leukemia, 64.3 µM; with SNB-75 CNS it was > 100 µM.
On to `Cc1ccc2c(=O)cc(-c3ccc(Cl)s3)[nH]c2n1`, for which the TGI was > 80.4 µM in the assay with 786-0 renal; > 100 µM in the assay on OVCAR-4 ovarian; > 100 µM with SNB-19 CNS; > 52.4 µM in the assay with HT29 colon; > 100 µM in the assay with TK-10 renal; > 22.9 µM in the assay on NCI-H23 lung. Also, the TGI with UACC-62 melanoma is > 100 µM; with MDA-MB-435, > 100 µM; in the assay on CCRF-CEM leukemia, > 100 µM; with SNB-75 CNS it was > 27.9 µM.
On to `COC(OC)[C@@H]1OC[C@H](n2cnc3c(N)ncnc32)[C@H]1O`, for which the TGI in the assay on 786-0 renal, with OVCAR-4 ovarian, in the assay on SNB-19 CNS, in the assay on HT29 colon, in the assay on TK-10 renal and with NCI-H23 lung was > 100 µM throughout. The TGI in the assay with UACC-62 melanoma, with MDA-MB-435, with CCRF-CEM leukemia and in the assay on SNB-75 CNS was > 100 µM in each case.
Turning to `C[n+]1cccc2c(=O)c3ccccc3oc21`, the TGI in the assay on OVCAR-4 ovarian, in the assay on SNB-19 CNS, with HT29 colon, in the assay with TK-10 renal, in the assay with NCI-H23 lung and in the assay with UACC-62 melanoma was > 100 µM each time. Moreover, the TGI in the assay on MDA-MB-435, in the assay with CCRF-CEM leukemia and with SNB-75 CNS was > 100 µM throughout.

(Values after PubChem BioAssay (NCI).)
